The record followed here is patent publication US9221810B2, “Substituted bicyclic aromatic compounds as S-nitrosoglutathione reductase inhibitors” (Nivalis Therapeutics, Inc., priority 2010, dated 2015).

pIC50: −log10 of the molar value. Bounds are passed on as bounds.

Experiment [1] relates to cigarette smoke-induced COPD (acute 4 day). The experiment is described as follows: Acute (4 day) cigarette smoke exposure COPD model. In kind it is in vivo, female C57Bl/6 mice. As for the experimental part: (§1) The efficacy of GSNOR inhibitors was assessed in a mouse model of chronic obstructive pulmonary disease (COPD) induced by short duration (4 days or 11 days) of exposure to cigarette smoke. Infiltration of inflammatory cells into the bronchoalveolar lavage fluid (BALF) and BALF levels of chemokines involved in inflammation and tissue turnover/repair were measured to assess the influences of GSNOR inhibitors on some of the early events associated with the initiation and progression of COPD.
(§2) Efficacy of GSNOR inhibitors against COPD was explored using acute (4 day) and subchronic (11 day) models of cigarette smoke-induced COPD in mice. […] In animal models, changes in lung pathology are only evident after extended (several months) duration of exposure to cigarette smoke, thus making chronic models prohibitive as effective screening tools. More recently, models exploring inflammatory responses after short duration (2 weeks or less) of smoke exposure in mice have been utilized as tools for screening efficacy and mechanisms of action of novel therapeutics against COPD. The key roles of inflammation in the initiation and progression of COPD, make these short duration models relevant for initial tests of efficacy of novel therapeutics.
Acute (4 Day) Smoke Exposure Model: Female C57Bl/6 mice (N=8 per group) were exposed to cigarette smoke using a whole body exposure chamber. Mice were exposed daily for 4 consecutive days to 4 cycles of smoke from 6 sequential cigarettes (Kentucky 3R4F without filter) with a 30 minute smoke free interval between cycles. GSNOR inhibitors were administered daily via oral dosing at 10 mg/kg/day for 7 days starting 2 days prior to smoke exposure and continuing 1 day post-exposure. The effects of GSNOR inhibitors were assessed by quantitating the numbers of total cells, leukocytes, and leukocytes differentials in the BALF via light microscopy and the levels of BALF chemokines via ELISA at approximately 24 h after the last smoke exposure. The effect of GSNOR inhibitors were compared to vehicle treated controls. The PDE4 inhibitor, roflumilast, was used as the positive control for the study. A group of naïve mice (N=8) was exposed to air and used as a negative control for the study.

In experiment [2] the test system is cigarette smoke-induced COPD (subchronic 11 day). The experiment can be described thus: Subchronic (11 day) cigarette smoke exposure COPD model. It counts as in vivo, female C57Bl/6 mice. The method, then:
as §1, §2
Subchronic (11 Day) Smoke Exposure Model: Female C57Bl/6 mice (N=10 per group) were exposed to cigarette smoke generated from Marlboro 100 cigarettes without filters. Exposure times were 25 min. on study day 1, 35 min. on study day 2, and 45 min. on study days 3 to 11. GSNOR inhibitors were administered one hour prior to smoke exposure on each day. GSNOR inhibitors were dosed orally at 1 to 10 mg/kg/day for 11 days. The effects of GSNOR inhibitors were assessed by quantitating the number of total cells, and leukocytes differentials in the BALF via light microscopy at 24 h after the last exposure. The effect of GSNOR inhibitors were compared to vehicle treated controls and expressed as percent inhibition of the cigarette smoke induced increases in BALF cell numbers. Roflumilast was used as the positive control for the study and was dosed at 5 mg/kg/day. A group of naïve mice (N=10) was exposed to air and dosed with vehicle as a negative control for the study.

The target in another experiment is T1, GSNOR (Homo sapiens, UniProt P11766).
T1 construct: made in house; host or cells: E. coli (arabinose-induced)
T1 sequence (P11766 whole entry): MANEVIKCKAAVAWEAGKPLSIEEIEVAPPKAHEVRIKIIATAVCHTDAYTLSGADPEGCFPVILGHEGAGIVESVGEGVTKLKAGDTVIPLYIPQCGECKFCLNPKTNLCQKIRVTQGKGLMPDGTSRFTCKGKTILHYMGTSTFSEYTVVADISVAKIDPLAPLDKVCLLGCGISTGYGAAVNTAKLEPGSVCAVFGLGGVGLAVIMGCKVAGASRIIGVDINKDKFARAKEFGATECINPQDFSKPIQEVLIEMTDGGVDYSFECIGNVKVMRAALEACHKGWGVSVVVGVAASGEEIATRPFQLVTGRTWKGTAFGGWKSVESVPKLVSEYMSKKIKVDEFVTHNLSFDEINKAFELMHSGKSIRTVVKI
The experiment can be described thus: GSNOR assay (inhibition of GSNOR activity, NADH absorbance at 340 nm). The following applies: printed as 'about <'; 0.240 mM GSNO, 0.300 mM NADH, pH 7.4, 25° C. In kind it is biochemical. The method, then:
GSNOR expression and purification is described in Biochemistry 2000, 39, 10720-10729.
GSNOR Fermentation: Pre-cultures were grown from stabs of a GSNOR glycerol stock in 2XYT media containing 100 ug/ml ampicillin after an overnight incubation at 37° C. Cells were then added to fresh 2XYT (4 L) containing ampicillin and grown to an OD (A600) of 0.6-0.9 at 37° C. before induction. GSNOR expression was induced with 0.1% arabinose in an overnight incubation at 20° C.
GSNOR Purification: E. coli cell paste was lysed by nitrogen cavitation and the clarified lysate purified by Ni affinity chromatography on an AKTA FPLC (Amersham Pharmacia). The column was eluted in 20 mM Tris pH 8.0/250 mM NaCl with a 0-500 mM imidazole gradient. Eluted GSNOR fractions containing the Smt-GSNOR fusion were digested overnight with Ulp-1 at 4° C. to remove the affinity tag then re-run on the Ni column under the same conditions. GSNOR was recovered in the flowthrough fraction and for crystallography is further purified by Q-Sepharose and Heparin flowthrough chromatography in 20 mM Tris pH 8.0, 1 mM DTT, 10 uM ZnSO4.
GSNOR Assay: GSNO and enzyme/NADH Solutions are made up fresh each day. The solutions are filtered and allowed to warm to room temperature. GSNO solution: 100 mM NaPO4 (pH 7.4), 0.480 mM GSNO. 396 μL of GSNO Solution is added to a cuvette followed by 8 μL of test compound in DMSO (or DMSO only for full reaction control) and mixed with the pipette tip. Compounds to be tested are made up at a stock concentration of 10 mM in 100% DMSO. 2 fold serial dilutions are done in 100% DMSO. 8 μL of each dilution are added to an assay so that the final concentration of DMSO in the assay is 1%. The concentrations of compounds tested range from 100 to 0.003 μM. Enzyme/NADH solution: 100 mM NaPO4 (pH 7.4), 0.600 mM NADH, 1.0 μg/mL GSNO Reductase. 396 μL of the Enzyme/NADH solution is added to the cuvette to start the reaction. The cuvette is placed in the Cary 3E UV/Visible Spectrophotometer and the change in 340 nm absorbance/min at 25° C. is recorded for 3 minutes. The assays are done in triplicate for each compound concentration. IC50's for each compound are calculated using the standard curve analysis in the Enzyme Kinetics Module of SigmaPlot.
Final assay conditions: 100 mM NaPO4, pH 7.4, 0.240 mM GSNO, 0.300 mM NADH, 0.5 μg/mL GSNO Reductase, and 1% DMSO. Final volume: 800 μL/cuvette.

Where [3] appears, read: oral 10 mg/kg/day for 7 days, vs vehicle treated controls, p<0.05.

Turning to `O=C(O)c1ccc(-c2ccc3cc(O)ccc3n2)cc1` [Example 3, 4-(6-hydroxyquinolin-2-yl)benzoic acid], in experiment [1] (acute 4 day smoke model), the BALF chemokines result is given as “restored BALF chemokines towards levels observed in naïve mice” and the “effects compared to roflumilast (positive control)” value is reported as “comparable to or greater than those observed for roflumilast”. Besides, in experiment [1] (setting [3]), the “decrease of eosinophils in BALF” value came to 95%, the “decrease of leukocytes in BALF” value worked out at 80%, the “decrease of macrophages in BALF” value is 75% and the “decrease of neutrophils in BALF” value was determined as 84%. Moreover, the “decrease of total cells in BALF” value in experiment [1] (setting [3]) was found to be 66%. In addition, in experiment [2] (oral 5 mg/kg/day), the “inhibition of lymphocytes in BALF” value is 46%, the “inhibition of macrophages in BALF” value is listed as 23%, the “inhibition of neutrophils in BALF” value worked out at 29% and the “inhibition of total cells in BALF” value was 22%. Besides, in experiment [2] (oral 10 mg/kg/day for 11 days), the “inhibition of smoke-induced increase in eosinophils in BALF” value was found to be 70%, the “inhibition of smoke-induced increase in lymphocytes in BALF” value is listed as 49%, the “inhibition of smoke-induced increase in macrophages in BALF” value was determined as 24% and the “inhibition of smoke-induced increase in neutrophils in BALF” value stood at 41%. Also, the “inhibition of smoke-induced increase in total cells in BALF” value in experiment [2] (oral 10 mg/kg/day for 11 days) amounted to 25%.
For `O=C(O)c1ccc(-c2ccc3cc(O)ccc3n2)c(Cl)c1` [Example 8, 3-chloro-4-(6-hydroxyquinolin-2-yl)benzoic acid], on GSNOR, the negative logarithm of the IC50 (pIC50) was > 7.00. In experiment [2] (1, 5, or 10 mg/kg/day), the “dose response of effect” value was “no dose response of effect”. The “effects compared to roflumilast (positive control)” value in experiment [2] (subchronic 11 day model, roflumilast 5 mg/kg/day) is listed as “comparable to those of roflumilast”.

As a reminder, the pIC50 is the IC50 on a negative log10 scale, so that one unit is a factor of ten.
